Measured values taken from patent US11091497B2, “Pyrano[3,4-b]pyrazine kappa opioid receptor ligands for treating addiction, pruritus, pain, and inflammation” (The Rockefeller University, priority 2017, dated 2021).

Experiments:
[1] = target: T1, kappa opioid receptor (PathHunter U2OS hOPRK1 β-arrestin cell line) (Homo sapiens, UniProt P41145); assay: β-arrestin coupling (PathHunter Detection Kit); assay type: cell-based; settings: for Emax at 10 µM: U2OS, read-out: β-arrestin coupling % efficacy
T1 construct: host or cells: U2OS (PathHunter U2OS hOPRK1 β-arrestin cell line)

[2] = target: T2, kappa opioid receptor (PathHunter U2OS hOPRK1 membranes) (Homo sapiens, UniProt P41145); assay: Tritiated U69,593 binding for KOP-R membranes
T2 construct: host or cells: U2OS (PathHunter U2OS hOPRK1 β-arrestin cell line)

[3] = tested on: mice; assay: Rotarod incoordination in mice; assay type: in vivo; settings: intraperitoneal
Excerpt: In the case of rotarod incoordination, kappa agonist effects in this assay reflect kappa-opioid receptor arrestin mediated signaling. This assay is thought to be a sensitive measure of the sedative properties of kappa opioid receptor agonists. Generally, a compound which has reduced efficacy in the coupling of arrestin with the kappa opioid receptor is thought to have a lowered potential for the sedative side effects of kappa opioid receptor ligands. Rotarod assays in vivo are employed to confirm this possibility.
Rotarod experiments were conducted with mice using a dedicated rodent rotarod apparatus, with up to five animals tested concurrently (IITC Life Science, Woodland Hills, Calif., USA). Rotarod rotation rate begins at 3 rotations per minute, and ramps to 30 rotations per minute over the course of 300 s, at which time the assay is terminated and animals removed to their home cage. Animals were acclimated to the rotarod on at least two occasions prior to the day of the test. On the day of the test, baseline times for each animal to fall off the rotarod were recorded. Mice were then injected intraperitoneally with vehicle or compound, and rotarod measurements conducted, beginning 0-2 minutes after injection, and then subsequently at select time points thereafter.

T1 sequence (P41145 whole entry): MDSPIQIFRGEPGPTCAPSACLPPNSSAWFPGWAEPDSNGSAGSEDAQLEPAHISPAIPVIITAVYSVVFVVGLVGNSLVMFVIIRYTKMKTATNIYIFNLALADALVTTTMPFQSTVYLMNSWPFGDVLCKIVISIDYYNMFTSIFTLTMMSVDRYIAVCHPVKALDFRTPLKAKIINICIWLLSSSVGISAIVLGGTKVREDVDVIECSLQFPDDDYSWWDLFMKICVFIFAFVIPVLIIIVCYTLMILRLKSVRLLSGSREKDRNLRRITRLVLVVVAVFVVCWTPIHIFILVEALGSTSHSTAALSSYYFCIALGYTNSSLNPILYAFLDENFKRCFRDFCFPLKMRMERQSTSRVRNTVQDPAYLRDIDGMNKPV
T2 sequence (P41145 whole entry): as above

SMILES	EC50 [1] [nM]	Emax at 10 µM [1] [%]	IC50 [2] [nM]	rotarod incoordination ([3]; 10 mg/kg)	rotarod incoordination ([3]; 30 mg/kg)	rotarod incoordination ([3]; 90 mg/kg)
O=C(Cc1ccc(Cl)c(Cl)c1)N1CCN[C@@H]2COC[C@H](N3CCCC3)[C@H]21 (racemic) [Example 5A22, 1-[8-pyrrolidin-1-yl-2,3,4,4a,5,7,8,8a-octahydropyrano(3,4-b)pyrazin-1-yl]-2-(3,4-dichlorophenyl)ethanone]	1130	67	65	no significant incoordination	significant incoordination	significant incoordination
CN1CCN(C(=O)Cc2ccc(Cl)c(Cl)c2)[C@H]2[C@H]1COC[C@@H]2N1CCCC1 (racemic) [Example 5A23, 1-[4-methyl-8-pyrrolidin-1-yl-3,4a,5,7,8,8a-hexahydro-2H- -pyrano(3,4-b)pyrazin-1-yl]-2-(3,4-dichlorophenyl)ethanone]	5540	44	103	no significant incoordination	statistically significant incoordination	statistically significant incoordination
